From patent US20230131219A1, “USE OF AGONISTS TO AUGMENT CAR T FUNCTION IN SOLID TUMORS” (The University of North Carolina at Chapel Hill, priority 2019, published 2023)

Experiments:
Assay type in all cases: in vivo, FVB-Neu mice
[1] = test system: NT2 tumors; assay: Orthotopic murine breast tumor model: tumor growth and survival
Method: 8-12 week old female FVB-Neu mice (Jackson Labs) were used under a protocol approved by University of North Carolina Institutional Animal Care and Use Committee. For tumor inoculation, mice were intradermally injected with 5×10^4 NT2 tumor cells into an axillary mammary gland. 21 days later (day 0), 1.5×10^6 CD4+ and 1.5×10^6 CD8+ CAR T cells were injected intravenously. Tumors were measured twice weekly with calipers and the tumor area calculated as length×width. The change of tumor area was determined by subtracting the tumor area before CAR T injection with the value on the day of the measurement. Per institutional guidelines, tumor-bearing mice were sacrificed when the tumor area reached 200 mm^2 or loss of more than 20% of total body weight. For tumor-bearing animals receiving combination therapy, animals underwent lymphodepletion with 5 Gy of whole body irradiation (X-RAD 320, Precision X-Ray) one day prior to CAR T injection. In the morning of day 0 mice were injected with 500 μg of DMXAA (Tocris) distal to the site of tumor growth with CAR T cells injected in the afternoon. Starting 1 day after CAR T infusion, anti-PD-1 (J43, 200 μg/mouse), anti-Gr-1 (RB6-8C5, […]), and […] (R4-6A2, 250 μg/mouse) mAb were injected intraperitoneally into respective recipients.

[2] = test system: NT2 tumors; assay: Single cell RNA sequencing of tumor infiltrating CD45+ immune cells; conditions: DMXAA with Th/Tc17 CAR T cells
Text: At day 7 or day 10 after CAR-T therapy, tumors were bluntly resected and cut into small pieces and digested using Tumor Dissociation Kit, mouse (Miltenyi) in gentleMACS™ Dissociator (Miltenyi) according to manufacturer's instruction. After digestion, dead and dying cells were magnetically separated using a Dead Cell Removal Kit (Miltenyi), after which immune cells were magnetically enriched using CD45 (TIL) MicroBeads (Miltenyi). Single cells were partitioned using a Chromium Controller (10× Genomics), and gene expression sequencing libraries were generated using Chromium Single Cell 3′ Library & Gel Bead Kit v3 (10× Genomics). The libraries were pooled and sequenced using an Illumina NovaSeq 6000 (Illumina). Raw base call files were demultiplexed with Cell Ranger 3.1.0 (10× Genomics) and bcl2fastq Conversion Software v2.20.0 (Illumina).
Single cell results from Cell Ranger output was analyzed using Partek flow workstation (available at partek.com/application-page/single-cell-gene-expression/). In detail, single cell result from each sample of Cell Ranger output was filtered using single cell (QA/QC) filter to exclude doublets/multiplets, cells expressing genes <30 genes per cell and dead cells. Processed results were normalized using recommended method, including log normalization of gene expression and scaled to count per million. Following results were filtered out by feature (gene) that were not expressed in 99% of samples. Then the replicate samples were pooled and clustered with an unsupervised method based on PCA using the first 16 principle component. Clustered plots were visualized by t-SNE plot, where cells were clustered using shared nearest neighbor (SNN). Populations was determined by expression of key markers, including Cd3e (T cells), Adgre1 (macrophage) and Itgam and/or Itgax (myeloid cells), and T cells were further clustered by expression of Cd8 and Cd44 (activated CD8 T cells), lack of Cd44 (naive T cells), Cd4 Cd44 (activated CD4 T cells) and Cd4 Foxp3 (Treg). For comparison, samples from each treatment group was pooled by the mean expression to simulate bulk RNA-seq, and compared using GSA analysis directly. Gene hits that reached P<0.05 with more than 2 or less than −2 fold expression difference was reported and shown as a heat map for pooled samples (macrophage and myeloid cells) or Q<0.05 with 2 or −2 fold expression difference for non-pooled samples (T cells). Further detailed analysis steps can be found on Partek flow page (available at documentation.partek.com/pages/viewpage.action?pageId=12943422) and parameter setting was set as default unless indicated.

[3] = test system: NT2 tumors; assay: Flow cytometry of CAR T cells in tumor microenvironment and spleen
Method: At indicated time points, tumors were bluntly resected and cut into small pieces and processed into a single-cell suspension using gentleMACS™ Dissociator (Miltenyi). Lymphocyte enrichment was achieved by isolating cells at the interface of 44% Percoll (Sigma-Aldrich) in media and Lympholyte-M (Cedarlane). Isolated immune cells were stained as described below. The lymphocyte fraction was not enriched in experiments where absolute cell number was determined.
Anti-Neu CAR T cells were detected using recombinant Neu/Her2.Fc fusion protein conjugated with PE (Neu-PE) (Creative Biomart). Antibodies used in in vitro assays included anti-CD45-FITC/e450 (30-F11, Invitrogen), anti-IFN-γ-APC (XMG1.2, Invitrogen), anti-TNF-PE-Cy7 (MP6-XT22, Invitrogen) and anti-IL-17A-PE (eBio17B7, Invitrogen). Tumor-infiltrating immune cells were detected and analyzed with anti-CD45-FITC, anti-CD3-e450 (17A2, Invitrogen), anti-CD4-BV510 (GKL.5, Biolegend), anti-CD8-APC-Cy7 (53-6.7 BD Biosciences), anti-CD44-PerCP5.5 (IM7, Invitrogen), anti-CD62L-APC (MEL-14, Invitrogen), anti-CD11b-BV711 (M1/70, Invitrogen), anti-F4/80-BV605 (BM8, Invitrogen), anti-Gr-1-Percp5.5 (RB6-8C5, Invitrogen), anti-PD-1-PE-Cy7 (J43, Invitrogen), anti-CD127-BV421 (A7R34, Biolegend), anti-KLGR1-BV605 (2F1, BD Bioscience). For in vivo intracellular protein staining, anti-Foxp3-PerCP5.5 (FJK-16S. Invitrogen), anti-Ki67-APC (SOLA15, Invitrogen) were used. Dead cells were excluded with Fixable Viability Stain 700 (BD Biosciences) and Fc receptors were blocked with Fc block (BD Biosciences). Cell number was determined using Count Bright Beads (Invitrogen). Data were collected using a BD LSR-Fortessa or BD Canto cytometer (BD Biosciences). Data were analyzed with FlowJo software (Treestar).

[4] = DMXAA prior to Th/Tc17 CAR-T cell infusion, compared to mock transduced T cells or Th/Tc17 CAR-T cells alone
[5] = DMXAA with Th/Tc17 CAR T cells, flow cytometry

Cc1ccc2c(=O)c3cccc(CC(=O)O)c3oc2c1C [DMXAA]
anti-tumor efficacy [1, 4]: significantly improved | overall survival [1, 4]: significantly improved | requirement for tumor remission ([1]; Th/Tc17 CAR-T, DMXAA, anti-PD-1 and anti-Gr1 treatment): required for tumor remission | expression of CXCL9 and CXCL10 by myeloid cells within the TME [2]: increased expression | expression of APOE, PTGS2 and AREG in myeloid cells ([2]; day 7): reduced expression | expression of BATF2, CXCL10, CCL5, SOCS1, NOS2 and IL12A in second myeloid cluster ([2]; day 7): greatly enhanced expression | expression of genes associated with M1-like macrophages including NOS2 and INHBA ([2]; day 7): increased expression | presence of M2-like macrophages expressing RENTLA, MMRC1, FOLR2 and IL10 in the TME ([2]; day 7): marked decrease | accumulation of T cells co-expressing TBX21, IFNG, CXCR3 and CCR5 ([2]; day 7, CD8+ CAR T cells): enhanced the accumulation | persistence of CAR T cells in the TME ([3]; DMXAA given with 7/15 CAR T cells, at a site remote from the tumor): enhanced the persistence | number of CAR T cells ([3]; DMXAA treatment, through day 10 post-therapy): marked increase | number and percentage of CD4+ CAR T cells [3, 5]: increase in the number and percentage | percentage and number of CAR T cells in the TME [3, 5]: greatly increased
